In the supplement of paper PMC10307832:

What was measured:
Assay in all cases: relative viability (nuclei count vs DMSO), 5 days (fraction); higher = more cells survive
OSI-027 + Olaparib = compound: COc1cccc2cc(-c3nc([C@H]4CC[C@H](C(=O)O)CC4)n4ncnc(N)c34)[nH]c12 [OSI-027] + O=C(c1cc(Cc2n[nH]c(=O)c3ccccc23)ccc1F)N1CCN(C(=O)C2CC2)CC1 [Olaparib] (partner 8 µM)
How it was run: (§1)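 One day after seeding in 1536-well plates, lung cancer cell lines were dosed by pin tool. Dosing was either single-drug or a fixed anchor-drug dose plus five library-drug doses (not always all listed) in √10 steps. After 5 days, nuclei were stained in one fix-and-stain step and counted on 4× images, and relative viability is the nuclei count of treated wells over that of vehicle wells, given as the median of duplicate plates.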

Alpelisib + Foretinib = compound: Cc1nc(NC(=O)N2CCC[C@H]2C(N)=O)sc1-c1ccnc(C(C)(C)C(F)(F)F)c1 [Alpelisib] + COc1cc2c(Oc3ccc(NC(=O)C4(C(=O)Nc5ccc(F)cc5)CC4)cc3F)ccnc2cc1OCCCN1CCOCC1 [Foretinib] (partner 0.25 µM)
How it was run: as §1

Alpelisib + Linsitinib = compound: Cc1nc(NC(=O)N2CCC[C@H]2C(N)=O)sc1-c1ccnc(C(C)(C)C(F)(F)F)c1 [Alpelisib] + C[C@]1(O)C[C@@H](c2nc(-c3ccc4ccc(-c5ccccc5)nc4c3)c3c(N)nccn32)C1 [Linsitinib] (partner 1 µM)
How it was run: as §1

Alpelisib + AZD7762 = compound: Cc1nc(NC(=O)N2CCC[C@H]2C(N)=O)sc1-c1ccnc(C(C)(C)C(F)(F)F)c1 [Alpelisib] + NC(=O)Nc1cc(-c2cccc(F)c2)sc1C(=O)N[C@H]1CCCNC1 [AZD7762] (partner 0.2 µM)
How it was run: as §1

Cell Line | relative viability (OSI-027 + Olaparib; first compound 0.01 µM) | relative viability (OSI-027 + Olaparib; first compound 0.03162 µM) | relative viability (OSI-027 + Olaparib; first compound 0.1 µM) | relative viability (OSI-027 + Olaparib; first compound 0.3162 µM) | relative viability (OSI-027 + Olaparib; first compound 1 µM) | relative viability (Alpelisib + Foretinib; first compound 0.04 µM) | relative viability (Alpelisib + Foretinib; first compound 0.1265 µM) | relative viability (Alpelisib + Foretinib; first compound 0.4 µM) | relative viability (Alpelisib + Foretinib; first compound 1.265 µM) | relative viability (Alpelisib + Foretinib; first compound 4 µM) | relative viability (Alpelisib + Linsitinib; first compound 0.04 µM) | relative viability (Alpelisib + Linsitinib; first compound 0.1265 µM) | relative viability (Alpelisib + Linsitinib; first compound 0.4 µM) | relative viability (Alpelisib + Linsitinib; first compound 1.265 µM) | relative viability (Alpelisib + Linsitinib; first compound 4 µM) | relative viability (Alpelisib + AZD7762; first compound 0.04 µM) | relative viability (Alpelisib + AZD7762; first compound 0.1265 µM) | relative viability (Alpelisib + AZD7762; first compound 0.4 µM) | relative viability (Alpelisib + AZD7762; first compound 1.265 µM) | relative viability (Alpelisib + AZD7762; first compound 4 µM)
NCI-H2126 | 0.939 | 0.904 | 0.879 | 0.835 | 0.578 | 1.05 | 1.01 | 1.04 | 1.07 | 0.904 | 0.682 | 0.716 | 0.66 | 0.698 | 0.63 | 0.998 | 1.01 | 0.945 | 0.904 | 0.769
NCI-H2347 | 0.599 | 0.536 | 0.598 | 0.492 | 0.344 | 0.777 | 0.98 | 0.88 | 0.647 | 0.701 | 0.997 | 0.941 | 1.03 | 0.84 | 0.952 | 0.756 | 0.661 | 0.815 | 0.81 | 0.764
NCI-H2405 | 0.886 | 0.838 | 0.823 | 0.694 | 0.456 | 1.1 | 1 | 1.1 | 0.849 | 0.711 | 1.07 | 0.935 | 1.02 | 0.781 | 0.847 | 0.763 | 0.728 | 0.686 | 0.446 | 0.428
NCI-H3122 | 0.759 | 0.604 | 0.682 | 0.647 | 0.407 | 1.02 | 0.884 | 0.987 | 0.867 | 0.821 | 0.994 | 0.938 | 1.02 | 0.715 | 0.675 | 0.989 | 1.03 | 0.978 | 0.693 | 0.589
PC-3 [JPC-3] | 1.13 | 1.14 | 1.23 | 1.08 | 0.628 | 1.08 | 1 | 1.07 | 0.987 | 0.971 | 0.948 | 0.974 | 1.03 | 0.883 | 0.933 | 0.808 | 0.755 | 0.781 | 0.601 | 0.516
PC-14 | 0.228 | 0.267 | 0.292 | 0.306 | 0.23 | 0.914 | 1.01 | 0.977 | 0.807 | 0.832 | 0.91 | 0.894 | 0.98 | 0.856 | 0.816 | 0.324 | 0.236 | 0.448 | 0.307 | 0.35
RERF-LC-KJ | 0.829 | 0.866 | 0.82 | 0.798 | 0.496 | 0.779 | 0.773 | 0.893 | 0.716 | 0.696 | 0.816 | 0.878 | 0.823 | 0.734 | 0.749 | 0.871 | 0.99 | 1.5 | 0.762 | 0.724
